In patent US8822517B2, “Arylosulfonamides for the treatment of CNS diseases” (Adamed SP. Z O.O., priority 2010, dated 2014):

Legend:
[1] = target: T1, serotonine transporter (SERT) receptor (Homo sapiens, UniProt P31645); assay: Binding assay SERT (h), [3H]imipramine, CHO cells; conditions: read-out: SERT [%]
T1 construct: expressed in transfected cells; host or cells: CHO cells
Summary of the method: (§1)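 Total binding and binding under an excess of unlabelled competitor were both measured, the difference giving specific binding. Counts came from scintillation detection, and compound concentration was 1×10^−6 M.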

adrenergic α1 receptor = assay: Binding assay α1 (non-selective), [3H]prazosin, rat cerebral cortex; conditions: percent inhibition of control specific binding; compounds tested at 1×10^−6 M
Summary of the method: as §1

dopaminergic D3 receptor = dopaminergic D3 receptor (Homo sapiens, UniProt P35462); assay: Binding assay D3 (h), [3H]methyl-spiperone, CHO cells; design: expressed in transfected cells; host or cells: CHO cells; conditions: read-out: D3 [%]
Summary of the method: as §1

[2] = target: serotoninergic 5-HT6 receptor (Homo sapiens, UniProt P50406); assay: Binding assay 5-HT6 (h), [3H]LSD, CHO cells; design: expressed in transfected cells; host or cells: CHO cells; conditions: read-out: 5-HT6
Summary of the method: as §1

[3] = target: serotoninergic 5-HT7 receptor (Homo sapiens, UniProt P34969); assay: Binding assay 5-HT7 (h), [3H]LSD, CHO cells; design: expressed in transfected cells; host or cells: CHO cells; conditions: read-out: 5-HT7
Summary of the method: as §1

dopaminergic D2 receptor = dopaminergic D2 receptor (Homo sapiens, UniProt P14416); assay: Binding assay D2S (h), [3H]methyl-spiperone, HEK-293 cells; design: expressed in transfected cells; host or cells: HEK-293 cells; conditions: read-out: D2 [%]
Summary of the method: as §1

[4] = target: T2, serotoninergic 5-HT1A receptor (Homo sapiens, UniProt P08908); assay: Binding assay 5-HT1A (h), [3H]8-OH-DPAT, HEK-293 cells; design: expressed in transfected cells; host or cells: HEK-293 cells; conditions: read-out: 5-HT1A
T2 sequence (P08908 1-422): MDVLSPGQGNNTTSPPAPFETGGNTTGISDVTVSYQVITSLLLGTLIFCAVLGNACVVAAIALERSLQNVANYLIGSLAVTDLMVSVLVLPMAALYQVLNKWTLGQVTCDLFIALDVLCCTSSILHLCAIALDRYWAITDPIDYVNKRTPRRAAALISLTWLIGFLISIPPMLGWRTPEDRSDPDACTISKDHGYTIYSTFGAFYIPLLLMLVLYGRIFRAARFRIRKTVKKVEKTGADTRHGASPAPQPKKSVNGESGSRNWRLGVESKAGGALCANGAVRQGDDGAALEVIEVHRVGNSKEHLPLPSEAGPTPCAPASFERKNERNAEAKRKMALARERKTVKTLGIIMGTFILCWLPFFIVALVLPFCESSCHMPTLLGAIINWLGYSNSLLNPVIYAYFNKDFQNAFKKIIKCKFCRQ
Summary of the method: as §1

[5] = target: serotoninergic 5-HT2A receptor (Homo sapiens, UniProt P28223); assay: Binding assay 5-HT2A (h), [3H]ketanserin, HEK-293 cells; design: expressed in transfected cells; host or cells: HEK-293 cells; conditions: read-out: 5-HT2A
Summary of the method: as §1

serotoninergic 5-HT2A receptor, sequence (P28223 whole entry): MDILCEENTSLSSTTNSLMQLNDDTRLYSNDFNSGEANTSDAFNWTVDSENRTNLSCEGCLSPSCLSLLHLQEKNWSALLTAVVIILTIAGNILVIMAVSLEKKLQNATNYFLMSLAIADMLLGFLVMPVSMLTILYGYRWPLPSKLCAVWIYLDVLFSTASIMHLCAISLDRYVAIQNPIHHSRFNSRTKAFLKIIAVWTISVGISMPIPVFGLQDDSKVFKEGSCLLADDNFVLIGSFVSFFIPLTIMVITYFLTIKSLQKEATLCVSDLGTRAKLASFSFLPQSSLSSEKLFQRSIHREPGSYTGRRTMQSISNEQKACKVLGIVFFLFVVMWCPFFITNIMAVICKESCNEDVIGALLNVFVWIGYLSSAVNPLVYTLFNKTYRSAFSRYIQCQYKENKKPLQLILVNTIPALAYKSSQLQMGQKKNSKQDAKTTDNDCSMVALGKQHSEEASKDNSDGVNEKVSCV
serotoninergic 5-HT7 receptor, sequence (P34969 whole entry): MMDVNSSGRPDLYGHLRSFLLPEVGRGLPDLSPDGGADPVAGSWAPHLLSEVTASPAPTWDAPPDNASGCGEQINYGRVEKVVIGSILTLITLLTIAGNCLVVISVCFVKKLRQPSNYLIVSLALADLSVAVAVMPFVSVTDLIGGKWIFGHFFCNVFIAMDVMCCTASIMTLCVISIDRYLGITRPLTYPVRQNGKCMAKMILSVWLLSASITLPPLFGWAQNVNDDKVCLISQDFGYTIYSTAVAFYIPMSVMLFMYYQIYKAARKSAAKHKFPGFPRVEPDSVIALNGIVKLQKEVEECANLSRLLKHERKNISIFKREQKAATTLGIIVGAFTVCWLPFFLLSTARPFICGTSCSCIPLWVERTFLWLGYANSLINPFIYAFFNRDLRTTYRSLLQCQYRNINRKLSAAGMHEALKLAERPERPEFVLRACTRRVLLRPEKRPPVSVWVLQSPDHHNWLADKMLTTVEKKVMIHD
dopaminergic D2 receptor, sequence (P14416 1-414 isoform P14416-2): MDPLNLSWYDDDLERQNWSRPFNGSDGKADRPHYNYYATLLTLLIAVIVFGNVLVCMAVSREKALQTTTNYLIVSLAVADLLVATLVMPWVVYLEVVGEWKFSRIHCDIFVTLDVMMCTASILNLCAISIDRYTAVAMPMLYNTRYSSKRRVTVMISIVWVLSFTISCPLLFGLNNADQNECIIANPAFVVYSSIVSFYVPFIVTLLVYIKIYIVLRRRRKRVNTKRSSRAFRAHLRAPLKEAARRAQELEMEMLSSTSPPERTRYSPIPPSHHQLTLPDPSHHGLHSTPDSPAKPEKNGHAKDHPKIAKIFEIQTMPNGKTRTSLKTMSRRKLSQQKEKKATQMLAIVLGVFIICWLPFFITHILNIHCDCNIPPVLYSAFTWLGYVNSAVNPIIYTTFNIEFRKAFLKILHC
serotoninergic 5-HT6 receptor, sequence (P50406 whole entry): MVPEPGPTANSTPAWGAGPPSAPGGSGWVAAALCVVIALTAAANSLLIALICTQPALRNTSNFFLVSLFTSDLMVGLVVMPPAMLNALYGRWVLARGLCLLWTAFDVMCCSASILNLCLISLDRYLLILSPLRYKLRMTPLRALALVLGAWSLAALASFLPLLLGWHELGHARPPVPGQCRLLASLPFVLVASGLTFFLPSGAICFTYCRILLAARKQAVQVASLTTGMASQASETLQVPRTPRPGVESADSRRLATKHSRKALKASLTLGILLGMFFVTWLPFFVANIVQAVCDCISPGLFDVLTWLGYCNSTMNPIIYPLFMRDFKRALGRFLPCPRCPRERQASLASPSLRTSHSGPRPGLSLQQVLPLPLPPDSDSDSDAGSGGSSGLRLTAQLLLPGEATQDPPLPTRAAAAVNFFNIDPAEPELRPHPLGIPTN
T1 sequence (P31645 whole entry): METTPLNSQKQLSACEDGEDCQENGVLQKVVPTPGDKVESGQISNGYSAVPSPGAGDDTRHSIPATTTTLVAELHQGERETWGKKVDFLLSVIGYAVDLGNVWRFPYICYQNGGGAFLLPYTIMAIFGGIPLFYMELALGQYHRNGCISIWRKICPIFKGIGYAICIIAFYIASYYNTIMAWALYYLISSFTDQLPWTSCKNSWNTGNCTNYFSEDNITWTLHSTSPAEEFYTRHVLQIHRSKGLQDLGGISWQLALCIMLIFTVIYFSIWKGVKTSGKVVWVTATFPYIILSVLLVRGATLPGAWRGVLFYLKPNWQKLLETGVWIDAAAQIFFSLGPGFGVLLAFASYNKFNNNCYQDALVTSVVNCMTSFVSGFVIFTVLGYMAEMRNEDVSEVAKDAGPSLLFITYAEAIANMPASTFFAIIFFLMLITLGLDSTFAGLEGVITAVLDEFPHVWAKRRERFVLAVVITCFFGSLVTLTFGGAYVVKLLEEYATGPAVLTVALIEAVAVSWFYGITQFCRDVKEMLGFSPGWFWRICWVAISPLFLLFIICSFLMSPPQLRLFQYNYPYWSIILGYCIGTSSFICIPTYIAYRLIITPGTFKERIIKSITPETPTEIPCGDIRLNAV
dopaminergic D3 receptor, sequence (P35462 whole entry): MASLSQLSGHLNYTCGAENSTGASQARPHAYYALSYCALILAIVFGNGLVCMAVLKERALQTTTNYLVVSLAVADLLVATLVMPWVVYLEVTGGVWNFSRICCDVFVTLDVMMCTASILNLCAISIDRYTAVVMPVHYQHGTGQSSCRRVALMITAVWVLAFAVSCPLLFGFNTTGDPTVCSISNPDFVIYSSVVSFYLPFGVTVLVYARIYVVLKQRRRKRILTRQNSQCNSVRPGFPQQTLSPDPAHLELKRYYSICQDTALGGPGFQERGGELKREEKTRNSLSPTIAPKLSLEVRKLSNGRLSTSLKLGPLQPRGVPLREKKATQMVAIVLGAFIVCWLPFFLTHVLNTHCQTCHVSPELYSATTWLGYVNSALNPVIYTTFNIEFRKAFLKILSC

Cc1cc(S(=O)(=O)NCCCCN2CCC(c3noc4cc(F)ccc34)CC2)c(C)s1 [Compound 309, N-[4-[4-(6-Fluoro-1,2-benzoxazol-3-yl)piperidin-1-yl]butyl]-2,5-dimethyl-thiophene-3-sulphonamide]
inhibition at 1 µM [1]: -5% | α1 [%] (adrenergic α1 receptor): 103% | inhibition at 1 µM (dopaminergic D3 receptor): 90% | inhibition at 1 µM [2]: 79% | inhibition at 1 µM [3]: 87% | inhibition at 1 µM (dopaminergic D2 receptor): 84% | inhibition at 1 µM [4]: 64% | inhibition at 1 µM [5]: 88%

Cn1ccc2c(S(=O)(=O)NCCCCN3CCC(c4noc5cc(F)ccc45)CC3)cccc21 [Compound 310, N-[4-[4-(6-Fluoro-1,2-benzoxazol-3-yl)piperidin-1-yl]butyl]-1-methyl-indole-4-sulphonamide]
inhibition at 1 µM [1]: 57% | α1 [%] (adrenergic α1 receptor): 107% | inhibition at 1 µM (dopaminergic D3 receptor): 97% | inhibition at 1 µM [2]: 89% | inhibition at 1 µM [3]: 89% | inhibition at 1 µM (dopaminergic D2 receptor): 96% | inhibition at 1 µM [4]: 91% | inhibition at 1 µM [5]: 99%

Cn1ccc2ccc(S(=O)(=O)NCCCCN3CCC(c4noc5cc(F)ccc45)CC3)cc21 [Compound 311, N-[4-[4-(6-Fluoro-1,2-benzoxazol-3-yl)piperidin-1-yl]butyl]-1-methyl-indole-6-sulphonamide]
inhibition at 1 µM [1]: 34% | α1 [%] (adrenergic α1 receptor): 107% | inhibition at 1 µM (dopaminergic D3 receptor): 101% | inhibition at 1 µM [2]: 99% | inhibition at 1 µM [3]: 95% | inhibition at 1 µM (dopaminergic D2 receptor): 105% | inhibition at 1 µM [4]: 49% | inhibition at 1 µM [5]: 105%

O=S(=O)(NCCCCN1CCC(c2noc3cc(F)ccc23)CC1)c1ccc2c(c1)CCO2 [Compound 317, N-[4-[4-(6-Fluoro-1,2-benzoxazol-3-yl)piperidin-1-yl]butyl]-2,3-dihydrobenzofuran-5-sulphonamide]
inhibition at 1 µM [1]: -17% | α1 [%] (adrenergic α1 receptor): 99% | inhibition at 1 µM (dopaminergic D3 receptor): 97% | inhibition at 1 µM [2]: 78% | inhibition at 1 µM [3]: 89% | inhibition at 1 µM (dopaminergic D2 receptor): 105% | inhibition at 1 µM [4]: 45% | inhibition at 1 µM [5]: 98%

O=S(=O)(NCCCCN1CCC(c2noc3cc(F)ccc23)CC1)c1cccc2scnc12 [Compound 318, N-[4-[4-(6-Fluoro-1,2-benzoxazol-3-yl)piperidin-1-yl]butyl]-1,3-benzothiazole-4-sulphonamide]
inhibition at 1 µM [1]: 45% | α1 [%] (adrenergic α1 receptor): 98% | inhibition at 1 µM (dopaminergic D3 receptor): 95% | inhibition at 1 µM [2]: 76% | inhibition at 1 µM [3]: 92% | inhibition at 1 µM (dopaminergic D2 receptor): 67% | inhibition at 1 µM [4]: 96% | inhibition at 1 µM [5]: 89%

O=S(=O)(NCCCCN1CCC(c2noc3cc(F)ccc23)CC1)c1ccc2cn[nH]c2c1 [Compound 319, N-[4-[4-(6-Fluoro-1,2-benzoxazol-3-yl)piperidin-1-yl]butyl]-1H-indazole-6-sulphonamide]
inhibition at 1 µM [1]: 8% | α1 [%] (adrenergic α1 receptor): 94% | inhibition at 1 µM (dopaminergic D3 receptor): 90% | inhibition at 1 µM [2]: 87% | inhibition at 1 µM [3]: 90% | inhibition at 1 µM (dopaminergic D2 receptor): 109% | inhibition at 1 µM [4]: 55% | inhibition at 1 µM [5]: 88%

O=S(=O)(NCCCCN1CCC(c2noc3cc(F)ccc23)CC1)c1cnc2ccccn12 [Compound 322, N-[4-[4-(6-Fluoro-1,2-benzoxazol-3-yl)piperidin-1-yl]butyl]imidazo[1,2-a]pyridine-3-sulphonamide]
inhibition at 1 µM [1]: 16% | α1 [%] (adrenergic α1 receptor): 103% | inhibition at 1 µM (dopaminergic D3 receptor): 93% | inhibition at 1 µM [2]: 62% | inhibition at 1 µM [3]: 95% | inhibition at 1 µM (dopaminergic D2 receptor): 96% | inhibition at 1 µM [4]: 43% | inhibition at 1 µM [5]: 94%

O=S(=O)(NCCCCN1CCC(c2noc3cc(F)ccc23)CC1)c1c[nH]c2ncccc12 [Compound 323, N-[4-[4-(6-Fluoro-1,2-benzoxazol-3-yl)piperidin-1-yl]butyl]-1H-pyrrolo[2,3-b]pyridine-3-sulphonamide]
inhibition at 1 µM [1]: 41% | α1 [%] (adrenergic α1 receptor): 103% | inhibition at 1 µM (dopaminergic D3 receptor): 96% | inhibition at 1 µM [2]: 92% | inhibition at 1 µM [3]: 93% | inhibition at 1 µM (dopaminergic D2 receptor): 105% | inhibition at 1 µM [4]: 45% | inhibition at 1 µM [5]: 96%

O=C1Cc2cc(S(=O)(=O)NCCCCN3CCC(c4noc5cc(F)ccc45)CC3)ccc2N1 [Compound 324, N-[4-[4-(6-Fluoro-1,2-benzoxazol-3-yl)piperidin-1-yl]butyl]-2-oxo-indoline-5-sulphonamide]
inhibition at 1 µM [1]: 37% | α1 [%] (adrenergic α1 receptor): 103% | inhibition at 1 µM (dopaminergic D3 receptor): 103% | inhibition at 1 µM [2]: 78% | inhibition at 1 µM [3]: 78% | inhibition at 1 µM (dopaminergic D2 receptor): 105% | inhibition at 1 µM [4]: 56% | inhibition at 1 µM [5]: 104%

O=S(=O)(NCCCN1CCC(c2noc3cc(F)ccc23)CC1)c1ccc(F)cc1 [Compound 326, 4-Fluoro-N-[3-[4-(6-fluoro-1,2-benzoxazol-3-yl)piperidin-1-yl]propyl]benzenesulphonamide]
inhibition at 1 µM [1]: 19% | α1 [%] (adrenergic α1 receptor): 101% | inhibition at 1 µM (dopaminergic D3 receptor): 99% | inhibition at 1 µM [2]: 94% | inhibition at 1 µM [3]: 94% | inhibition at 1 µM (dopaminergic D2 receptor): 109% | inhibition at 1 µM [4]: 59% | inhibition at 1 µM [5]: 96%

O=S(=O)(NCCCN1CCC(c2noc3cc(F)ccc23)CC1)c1ccc(F)c(F)c1 [Compound 327, 3,4-Difluoro-N-[3-[4-(6-fluoro-1,2-benzoxazol-3-yl)piperidin-1-yl]propyl]benzenesulphonamide]
inhibition at 1 µM [1]: -1% | α1 [%] (adrenergic α1 receptor): 109% | inhibition at 1 µM (dopaminergic D3 receptor): 97% | inhibition at 1 µM [2]: 99% | inhibition at 1 µM [3]: 86% | inhibition at 1 µM (dopaminergic D2 receptor): 89% | inhibition at 1 µM [4]: 67% | inhibition at 1 µM [5]: 91%

O=S(=O)(NCCCN1CCC(c2noc3cc(F)ccc23)CC1)c1ccc(Cl)c(Cl)c1 [Compound 329, 3,4-Dichloro-N-[3-[4-(6-fluoro-1,2-benzoxazol-3-yl)piperidin-1-yl]propyl]benzenesulphonamide]
inhibition at 1 µM [1]: -2% | α1 [%] (adrenergic α1 receptor): 102% | inhibition at 1 µM (dopaminergic D3 receptor): 99% | inhibition at 1 µM [2]: 97% | inhibition at 1 µM [3]: 95% | inhibition at 1 µM (dopaminergic D2 receptor): 109% | inhibition at 1 µM [4]: 69% | inhibition at 1 µM [5]: 91%

COc1cccc(S(=O)(=O)NCCCN2CCC(c3noc4cc(F)ccc34)CC2)c1 [Compound 332, N-[3-[4-(6-Fluoro-1,2-benzoxazol-3-yl)piperidin-1-yl]propyl]-3-methoxybenzenesulphonamide]
inhibition at 1 µM [1]: 18% | α1 [%] (adrenergic α1 receptor): 107% | inhibition at 1 µM (dopaminergic D3 receptor): 96% | inhibition at 1 µM [2]: 95% | inhibition at 1 µM [3]: 64% | inhibition at 1 µM (dopaminergic D2 receptor): 83% | inhibition at 1 µM [4]: 71% | inhibition at 1 µM [5]: 97%

CC(C)(C)c1ccc(S(=O)(=O)NCCCN2CCC(c3noc4cc(F)ccc34)CC2)cc1 [Compound 333, 4-tert-Butyl-N-[3-[4-(6-fluoro-1,2-benzoxazol-3-yl)piperidin-1-yl]propyl]benzenesulphonamide]
inhibition at 1 µM [1]: 5% | α1 [%] (adrenergic α1 receptor): 106% | inhibition at 1 µM (dopaminergic D3 receptor): 89% | inhibition at 1 µM [2]: 93% | inhibition at 1 µM [3]: 92% | inhibition at 1 µM (dopaminergic D2 receptor): 92% | inhibition at 1 µM [4]: 42% | inhibition at 1 µM [5]: 99%

O=S(=O)(NCCCN1CCC(c2noc3cc(F)ccc23)CC1)c1ccc(C(F)(F)F)cc1 [Compound 334, N-[3-[4-(6-Fluoro-1,2-benzoxazol-3-yl)piperidin-1-yl]propyl]-4-(trifluoromethyl)-benzenesulphonamide]
inhibition at 1 µM [1]: 30% | α1 [%] (adrenergic α1 receptor): 105% | inhibition at 1 µM (dopaminergic D3 receptor): 96% | inhibition at 1 µM [2]: 98% | inhibition at 1 µM [3]: 85% | inhibition at 1 µM (dopaminergic D2 receptor): 75% | inhibition at 1 µM [4]: 86% | inhibition at 1 µM [5]: 90%

O=S(=O)(NCCCN1CCC(c2noc3cc(F)ccc23)CC1)c1cccc(C(F)(F)F)c1 [Compound 335, N-[3-[4-(6-Fluoro-1,2-benzoxazol-3-yl)piperidin-1-yl]propyl]-3-(trifluoromethyl)-benzenesulphonamide]
inhibition at 1 µM [1]: -25% | α1 [%] (adrenergic α1 receptor): 101% | inhibition at 1 µM (dopaminergic D3 receptor): 93% | inhibition at 1 µM [2]: 93% | inhibition at 1 µM [3]: 88% | inhibition at 1 µM (dopaminergic D2 receptor): 105% | inhibition at 1 µM [4]: 54% | inhibition at 1 µM [5]: 97%
